In EP4741386A1 (Jiangsu Yahong Meditech Co., Ltd., priority 2023, dated 2025) one finds IC50 data, which are given here for 24 molecules.

Molecules are shown by their SMILES.

The target in assay [1] is T1, Recombinant human His6-USP1/His6-UAF1 complex protein (Homo sapiens, UniProt O94782).
T1 construct: His6; purchased R&D E-568-050
The experiment in a line: In vitro inhibitory activity against USP1 (Ubiquitin Rhodamine 110 fluorescence detection, 384-well plate). It counts as biochemical. To be noted: Ub-Rho substrate, 1 hour pre-incubation, read after 30 minutes. Here is the method: Test Example 1: In vitro inhibitory activity against USP1 […]
Experimental object: to screen compounds with inhibitory activity against USP1 […] by a fluorescence detection method, using a 384-well plate.
Experimental materials: Recombinant human His6-USP1/His6-UAF1 complex protein (R&D, Cat. No.: E-568-050), Ubiquitin Rhodamine 110 protein (Ub-Rho) (R&D, Cat. No.: U-555-050), 384-well plate (Perkin Elmer, Cat. No.: 6007279); all compounds were dissolved in 100% DMSO to obtain 50 mM stock solutions.
• 1) Preparation of 1 × assay buffer: 1 × assay buffer (modified Tris buffer) was prepared; • 2) Dilution of compounds: the compounds were transferred to an assay plate via Echo.

A further assay has as its system MDA-MB-436. As to the kind of experiment: CTG experiment for cell viability (CellTiter-Glo, 96-well plate, 7 days). To be noted: MDA-MB-436 cells, 7 days culture with compound. It counts as cell-based. Here is the method: Test Example 2: CTG experiment for cell viability
• 1. Object: to screen USP1 inhibitors by a CTG assay, using a 96-well plate. • 2. Materials: • The cells used were MDA-MB-436 (manufacturer: Nanjing Cobioer Biotechnology Co., Ltd.) and cultured in DMEM medium, • CTG (CellTiter-Glo® Luminescent Cell Viability Assay kit) (Promega, Cat. No.: G7572), • 96-well plate (Corning, Cat. No.: 3610). • 3. Compounds: all compounds were dissolved in 100% DMSO to obtain 50 mM stock solutions. • 4. Experimental method: • ① Plating: The cells to be tested were spread into a 96-well plate at a certain density, with 200 µL per well, and 200 µL of cell medium was added to the blank wells. […] The cell plate with the compounds was placed in an incubator at 37°C, and further cultured for 7 days prior to detection. • ④ Assay: The substrate and the buffer of CTG kit were mixed evenly. The cell plate with the compounds in Step ③ was taken out from the incubator, and left at room temperature to equilibrate for 30 minutes. The medium containing the compounds was removed from the cell plate, 100 µL of PBS and 50 µL of CTG reagent were added to each well, shaken and mixed for 3 minutes, and then incubated for 10 minutes at room temperature. The plate was read by a BIotek microplate-reader, with a parameter set to 567 CPM. • 5. Curve fitting
It was the same as that for the enzyme.

Setting [2] is: Homo sapiens, MDA-MB-436, 168 h.

T1 sequence (O94782 whole entry): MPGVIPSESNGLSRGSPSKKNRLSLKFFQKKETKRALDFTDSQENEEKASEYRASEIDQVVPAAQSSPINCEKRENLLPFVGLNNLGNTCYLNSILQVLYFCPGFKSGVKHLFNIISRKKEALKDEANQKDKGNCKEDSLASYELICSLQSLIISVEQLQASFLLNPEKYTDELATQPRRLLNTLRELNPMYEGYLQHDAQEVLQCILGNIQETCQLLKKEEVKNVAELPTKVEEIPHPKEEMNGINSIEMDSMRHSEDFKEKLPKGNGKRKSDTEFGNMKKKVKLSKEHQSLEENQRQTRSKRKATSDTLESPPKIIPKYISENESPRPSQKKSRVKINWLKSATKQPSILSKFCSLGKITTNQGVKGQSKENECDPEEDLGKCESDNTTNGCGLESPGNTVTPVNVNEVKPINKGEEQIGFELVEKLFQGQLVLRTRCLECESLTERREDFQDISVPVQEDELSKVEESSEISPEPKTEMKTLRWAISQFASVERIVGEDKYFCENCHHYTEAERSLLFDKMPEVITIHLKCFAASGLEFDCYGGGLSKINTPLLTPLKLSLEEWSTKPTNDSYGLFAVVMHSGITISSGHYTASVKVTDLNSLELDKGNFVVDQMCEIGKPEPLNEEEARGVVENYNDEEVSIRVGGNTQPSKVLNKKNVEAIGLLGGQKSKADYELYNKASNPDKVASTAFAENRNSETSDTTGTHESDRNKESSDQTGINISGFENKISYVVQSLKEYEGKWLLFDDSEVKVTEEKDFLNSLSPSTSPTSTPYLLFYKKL
T1 sequence (Q8TAF3 whole entry partner): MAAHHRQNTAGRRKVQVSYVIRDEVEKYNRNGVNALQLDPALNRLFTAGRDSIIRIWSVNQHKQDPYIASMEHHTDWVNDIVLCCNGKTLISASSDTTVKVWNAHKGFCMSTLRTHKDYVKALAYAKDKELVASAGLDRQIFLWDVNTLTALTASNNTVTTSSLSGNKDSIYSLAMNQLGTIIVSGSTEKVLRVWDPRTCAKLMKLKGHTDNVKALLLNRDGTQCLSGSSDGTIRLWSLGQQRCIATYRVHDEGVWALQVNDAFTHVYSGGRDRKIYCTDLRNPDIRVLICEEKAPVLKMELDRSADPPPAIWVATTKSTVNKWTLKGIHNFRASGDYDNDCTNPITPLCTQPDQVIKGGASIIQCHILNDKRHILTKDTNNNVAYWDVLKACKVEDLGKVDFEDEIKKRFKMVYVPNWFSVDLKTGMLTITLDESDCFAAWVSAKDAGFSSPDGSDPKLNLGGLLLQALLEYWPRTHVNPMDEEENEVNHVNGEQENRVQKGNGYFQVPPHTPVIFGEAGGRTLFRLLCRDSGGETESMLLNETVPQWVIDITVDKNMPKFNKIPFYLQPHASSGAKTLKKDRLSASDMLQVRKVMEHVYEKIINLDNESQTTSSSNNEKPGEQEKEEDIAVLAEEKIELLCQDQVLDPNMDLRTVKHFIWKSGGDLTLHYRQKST

Take `COc1cnc(-c2ccccc2C(C)C)nc1N(C)CC1CCN(c2ccccn2)CC1` [Example 2, 2-(2-Isopropylphenyl)-5-methoxy-N-methyl-N-((1-(pyridin-2-yl)piperidin-4-yl)methyl)pyrimidin-4-amine]: the results for the IC50 (in assay [1]; in the assay with MDA-MB-436 (setting [2])) were 14 nM and 0.1 nM, respectively. On to `COc1cnc(-c2ccccc2C(C)C)nc1N(C)Cc1ccc(-c2nc(C(F)(F)F)cn2C)cc1` [Example 3, 2-(2-Isopropylphenyl)-5-methoxy-N-methyl-N-(4-(1-methyl-4-(trifluoromethyl)-1H-imidazol-2-yl)benzyl)pyrimidin-4-amine], for which the results for the half-maximal inhibitory concentration (IC50) (in assay [1]; in the assay with MDA-MB-436 (setting [2])) were 2.8 nM and 6.4 nM, respectively. Take `COc1cnc(-c2ccccc2C(C)C)nc1NCc1ccc(-c2nc(C(F)(F)F)cn2C)cc1` [Example 4, 2-(2-Isopropylphenyl)-5-methoxy-N-(4-(1-methyl-4-(trifluoromethyl)-1H-imidazol-2-yl)benzyl)pyrimidin-4-amine]: the figures for the IC50 (in assay [1]; in the assay on MDA-MB-436 (setting [2])) were 1.2 nM and 0.3 nM, respectively.

In the case of `COc1cnc(-c2ccccc2C(C)C)nc1NCC1CCN(c2ccccn2)CC1` [Example 5, 2-(2-Isopropylphenyl)-5-methoxy-N-((1-(pyridin-2-yl)piperidin-4-yl)methyl)pyrimidin-4-amine], the concentration for half-maximal inhibition (IC50) (in general, the concentration that inhibits the measured activity by half) in assay [1] amounted to 7.6 nM; in the assay with MDA-MB-436 (setting [2]), 113 nM.

Turning to `COc1cnc(-c2ccccc2C(C)C)nc1NC[C@H]1CC[C@H](c2nc(C(F)(F)F)cn2C)CC1` [Example 6, 2-(2-Isopropylphenyl)-5-methoxy-N-(((1R,4R)-4-(1-methyl-4-(trifluoromethyl)-1H-imidazol-2-yl)cyclohexyl)methyl)pyrimidin-4-amine], the values for the IC50 (in assay [1]; in the assay with MDA-MB-436 (setting [2])) were 1.2 nM and 2 nM, respectively. In the same order, the values of `COc1cnc(-c2ccccc2C(C)C)nc1NCc1ccc(-n2nc(C(F)(F)F)cc2C)cc1` [Example 7, 2-(2-Isopropylphenyl)-5-methoxy-N-(4-(5-methyl-3-(trifluoromethyl)-1H-pyrazol-1-yl)benzyl)pyrimidin-4-amine] are 4.5 nM and 102 nM.

Take `COc1cnc(-c2c(OC)ncnc2C2CC2)nc1N(C)Cc1ccc(-c2nc(C(F)(F)F)cn2C)cc1` [Example 8, 4'-Cyclopropyl-5,6'-dimethoxy-N-methyl-N-(4-(1-methyl-4-(trifluoromethyl)-1H-imidazol-2-yl)benzyl)-[2,5'-bipyrimidin]-4-amine]: the 50% inhibitory concentration (IC50) amounted to 1.4 nM in assay [1] and 2.3 nM in the assay with MDA-MB-436 (setting [2]).

`COc1cnc(-c2ccccc2C(C)C)nc1NCc1ccc(-c2nccn3ccnc23)cc1` [Example 11, N-(4-(Imidazo[1,2-a]pyrazin-8-yl)benzyl)-2-(2-isopropylphenyl)-5-methoxypyrimidin-4-amine]: the half-maximal inhibitory concentration (IC50) in assay [1] worked out at 22 nM; in the assay on MDA-MB-436 (setting [2]), 751 nM. For `Cc1cc(C(F)(F)F)nn1-c1ccc(CN2C(=O)COc3cnc(-c4ccccc4C(C)C)nc32)cc1` [Example 15, 2-(2-Isopropylphenyl)-8-(4-(5-methyl-3-(trifluoromethyl)-1H-pyrazol-1-yl)benzyl)-6H-pyrimido[5,4-b][1,4]oxazin-7(8H)-one], the IC50 in assay [1] was 6.8 nM; in the assay on MDA-MB-436 (setting [2]), 301 nM. Consider `CC(C)c1ccccc1-c1ncc(C(F)(F)F)c(NCc2ccc(-c3nc(C(F)(F)F)cn3C)cc2)n1` [Example 17, 2-(2-Isopropylphenyl)-N-(4-(1-methyl-4-(trifluoromethyl)-1H-imidazol-2-yl)benzyl)-5-(trifluoromethyl)pyrimidin-4-amine], for which the IC50 amounted to 3.9 nM in assay [1] and 103 nM with MDA-MB-436 (setting [2]). As for `COc1ncnc(C2CC2)c1-c1ncc2c(n1)N(Cc1ccc(-c3nc(C(F)(F)F)cn3C)cc1)C(=O)CO2` [Example 18, 2-(4-Cyclopropyl-6-methoxypyrimidin-5-yl)-8-(4-(1-methyl-4-(trifluoromethyl)-1H-imidazol-2-yl)benzyl)-6H-pyrimido[5,4-b][1,4]oxazin-7(8H)-one], the IC50 with MDA-MB-436 (setting [2]) was 313 nM.

Take `COc1cnc(-c2c(OC)ncnc2C2CC2)nc1N(C)Cc1ccc(-c2ccccn2)cc1` [Example 19, 4'-Cyclopropyl-5,6'-dimethoxy-N-methyl-N-(4-(pyridin-2-yl)benzyl)-[2,5'-bipyrimidin]-4-amine]: the IC50 in assay [1] turned out to be 24 nM; in the assay on MDA-MB-436 (setting [2]), 1.2 nM. As for `COc1ncnc(C2CC2)c1-c1ncc2c(n1)N(CC1CCN(c3nc(C(F)(F)F)cn3C)CC1)CCO2` [Example 20, 2-(4-Cyclopropyl-6-methoxypyrimidin-5-yl)-8-((1-(1-methyl-4-(trifluoromethyl)-1H-imidazol-2-yl)piperidin-4-yl)methyl)-7,8-dihydro-6H-pyrimido[5,4-b][1,4] oxazine], the IC50 in assay [1] was 91.5 nM; in the assay on MDA-MB-436 (setting [2]), 533 nM. In the case of `COc1ncnc(C2CC2)c1-c1ncc2c(n1)N(Cc1ccc(-c3nc(C(F)(F)F)cn3C)cc1)CCO2` [Example 21, 2-(4-Cyclopropyl-6-methoxypyrimidin-5-yl)-8-(4-(1-methyl-4-(trifluoromethyl)-1H-imidazol-2-yl)benzyl)-7,8-dihydro-6H-pyrimido[5,4-b][1,4]oxazine], in the assay with MDA-MB-436 (setting [2]), the IC50 was 1.8 nM. As for `COc1ncnc(C2CC2)c1-c1ncc2c(n1)N(C[C@H]1CC[C@H](c3nc(C(F)(F)F)cn3C)CC1)CCO2` [Example 22, 2-(4-Cyclopropyl-6-methoxypyrimidin-5-yl)-8-(((1r,4r)-4-(1-methyl-4-(trifluoromethyl)-1H-imidazol-2-yl)cyclohexyl)methyl)-7,8-dihydro-6H-pyrimido[5,4-b][1,4]oxazine], the values for the half-inhibitory concentration (IC50) (in assay [1]; in the assay with MDA-MB-436 (setting [2])) were 24.4 nM and 209 nM, respectively. Take `COc1cnc(-c2ccccc2C(C)C)nc1NCC12CCC(c3ccc(C(F)(F)F)cn3)(CC1)CC2` [Example 23, 2-(2-Isopropylphenyl)-5-methoxy-N-((4-(5-(trifluoromethyl)pyridin-2-yl)bicyclo[2.2.2]octan-1-yl)methyl)pyrimidin-4-amine]: the results for the concentration for half-maximal inhibition (IC50) (in assay [1]; in the assay on MDA-MB-436 (setting [2])) were 33 nM and 33.1 nM, respectively.

Take `COc1cnc(-c2c(OC)ncnc2C2CC2)nc1NCc1ccc(-n2nc(C(F)(F)F)cc2C)cc1` [Example 26, 4'-Cyclopropyl-5,6'-dimethoxy-N-(4-(5-methyl-3-(trifluoromethyl)-1H-pyrazol-1-yl)benzyl)-[2,5'-bipyrimidin]-4-amine]: the IC50 in assay [1] amounted to 4.6 nM; in the assay with MDA-MB-436 (setting [2]), 0.9 nM. On to `COc1cnc(-c2c(OC)ncnc2C2CC2)nc1NCC12CCC(c3ccc(C(F)(F)F)cn3)(CC1)CC2` [Example 28], for which the IC50 was found to be 33 nM in assay [1] and 55.8 nM in the assay on MDA-MB-436 (setting [2]). In the case of `COc1ncnc(C2CC2)c1-c1nc(NCc2ccc(-c3ccccn3)cc2)c2occc2n1` [Example 34, 2-(4-Cyclopropyl-6-methoxypyrimidin-5-yl)-N-(4-(pyridin-2-yl)benzyl)furo[3,2-d]pyrimidin-4-amine], the half-inhibitory concentration (IC50) in the assay with MDA-MB-436 (setting [2]) came to 119 nM. `Cn1cc(C(F)(F)F)nc1-c1ccc(CNc2nc(-c3cccnc3C3CC3)ncc2OC(F)F)cc1` [Example 156, 2-(2-Cyclopropylpyridin-3-yl)-5-(difluoromethoxy)-N-(4-(1-methyl-4-(trifluoromethyl)-1H-imidazol-2-yl)benzyl)pyrimidin-4-amine]: the half-inhibitory concentration (IC50) in the assay with MDA-MB-436 (setting [2]) turned out to be 59.5 nM. In the case of `COc1cnc(-c2c(C)ncnc2OC2CC2)nc1NCC12CCC(c3nc(C(F)(F)F)cn3C)(CC1)CC2` [Example S19], the 50% inhibitory concentration (IC50) in assay [1] turned out to be 300 nM. Take `COc1cnc(-c2c(OC)ncnc2C2CC2)nc1NCC1CCC(c2nc(C(F)(F)F)cn2C(C)C)CC1` [Example S25, 4'-Cyclopropyl-N-((1R,4R)-4-(1-isopropyl-4-(trifluoromethyl)-1H-imidazol-2-yl)cyclohexyl)methyl)-5,6'-dimethoxy-[2,5'-bipyrimidin]-4-amine]: in the assay with MDA-MB-436, the IC50 was 24.4 nM. For `COc1cnc(-c2c(OC)ncnc2C2CC2)nc1N(C)C[C@H]1CC[C@H](c2nc(C(F)(F)F)cn2C2CC2)CC1` [Example S28, 4'-Cyclopropyl-N-(((1R,4R)-4-(1-cyclopropyl-4-(trifluoromethyl)-1H-imidazol-2-yl)cyclohexyl)methyl)-5,6'-dimethoxy-N-methyl-[2,5'-bipyrimidin]-4-amine], in the assay on MDA-MB-436, the half-inhibitory concentration (IC50) amounted to 0.3 nM. With `COc1cnc(-c2c(OC)ncnc2C2(F)CC2)nc1NCC1CCC(c2nc(C(F)(F)F)cn2C2CC2)CC1` [Example S38, N-(((1R,4R)-4-(1-cyclopropyl-4-(trifluoromethyl)-1H-imidazol-2-yl)cyclohexyl)methyl)-4'-(1-fluorocyclopropyl)-5,6'-dimethoxy-[2,5'-bipyrimidin]-4-amine], the IC50 in assay [1] was determined as 220 nM.
